The results in this text go back to ChEMBL document CHEMBL3046402, “Synthesis of substituted benzo[d]thiazol-2-ylcarbamates as potential anticonvulsants” (2013).

The structures appear in SMILES notation. Activity calls are given as the source filed them. The calls are words filed in the database; no cut-off is given here.

Test [1] deals with Mus musculus. Put plainly: Anticonvulsant activity in Swiss albino Mus musculus (mouse) assessed as protection against maximal electric shock-induced death at 35 mg/kg administered 30 min prior to maximal electric shock-challenge. The format is functional, organism-based. On the set-up: dose 35 mg/kg.
Test [2] deals with Mus musculus. Put plainly: Anticonvulsant activity in Swiss albino Mus musculus (mouse) assessed protection against PTZ-induced clonic convulsion at 35 mg/kg administered 60 min prior to PTZ-challenge measured up to 30 min relative to control. The format is functional.
Test [3] has as its system Mus musculus. Put plainly: Anticonvulsant activity in Swiss albino Mus musculus (mouse) assessed as time of onset of PTZ-induced clonic convulsion at 35 mg/kg administered 60 min prior to PTZ-challenge (reference value: 59.166 +/- 0.04216 Secs). The test is classed as functional.
Test [4] relates to Mus musculus. Description: Anticonvulsant activity in Swiss albino Mus musculus (mouse) assessed as latency time of maximal electric shock-induced clonus onset at 35 mg/kg administered 30 min prior to maximal electric shock-challenge (reference value: 3.16 +/- 0.0833 min). The format is functional.
Test [5] concerns Mus musculus. Description: Anticonvulsant activity in Swiss albino Mus musculus (mouse) assessed as time duration of maximal electric shock-induced tonic extension at 35 mg/kg administered 30 min prior to maximal electric shock-challenge (reference value: 20.66 +/- 0.8433 secs). The format is functional.
The subject of test [6] is Mus musculus. Put plainly: Anticonvulsant activity against maximal electric shock-induced seizures in Swiss albino Mus musculus (mouse) assessed as time duration of tonic flexions at 35 mg/kg administered 30 min prior to maximal electric shock-challenge (reference value: 0 secs). The test is classed as functional.
Test [7] concerns Mus musculus. Description: Anticonvulsant activity in Swiss albino Mus musculus (mouse) assessed as protection against maximal electric shock-induced death at 20 mg/kg administered 30 min prior to maximal electric shock-challenge. The test is classed as functional, organism-based. On the set-up: dose 20 mg/kg.
For test [8], the system named is Mus musculus. Put plainly: Anticonvulsant activity in Swiss albino Mus musculus (mouse) assessed as time duration of maximal electric shock-induced tonic extension at 20 mg/kg administered 30 min prior to maximal electric shock-challenge (reference value: 20.66 +/- 0.8433 secs). The test is classed as functional.
Test [9] has as its system Mus musculus. Put plainly: Anticonvulsant activity against maximal electric shock-induced seizures in Swiss albino Mus musculus (mouse) assessed as time duration of tonic flexions at 20 mg/kg administered 30 min prior to maximal electric shock-challenge (reference value: 0 secs). The format is functional.
The subject of test [10] is Mus musculus. Put plainly: Anticonvulsant activity in Swiss albino Mus musculus (mouse) assessed protection against PTZ-induced clonic convulsion at 20 mg/kg administered 60 min prior to PTZ-challenge measured up to 30 min relative to control. The format is functional.
The test system of test [11] is Mus musculus. Put plainly: Anticonvulsant activity in Swiss albino Mus musculus (mouse) assessed as latency time of maximal electric shock-induced clonus onset at 20 mg/kg administered 30 min prior to maximal electric shock-challenge (reference value: 3.16 +/- 0.0833 min). The test is classed as functional.

In the case of `Cc1cccc2sc(NC(=O)Oc3ccccc3)nc12`, the outcome with Mus musculus [1] was Active. The Activity in the test with Mus musculus [2] is recorded as 83.33%. In addition, the Time in the test with Mus musculus [3] worked out at 75.166 s; in the test with Mus musculus [4], 9.58 min; with Mus musculus [5], 0 s; in the test with Mus musculus [6] it was 5.48 s.

Take `CCc1ccc2nc(NC(=O)Oc3ccccc3)sc2c1`: the result in the test with Mus musculus [1] was Active. Further, the Activity in the test on Mus musculus [2] came out at 83.33%. The Time with Mus musculus [3] was 86 s; with Mus musculus [4] it was 7.59 min; in the test on Mus musculus [5], 0 s; with Mus musculus [6] it was 5.2916 s.

As to `CCOC(=O)Nc1nc2ccc(CC)cc2s1`, in the test with Mus musculus [1], the result was Active. The molecule further displayed an Activity with Mus musculus [2] of 83.33%. Further, the Time in the test on Mus musculus [3] was 83 s; with Mus musculus [4], 10.415 min; in the test with Mus musculus [5], 0 s; in the test with Mus musculus [6], 8.12 s.

In the case of `O=C(Nc1nc2ccc([N+](=O)[O-])cc2s1)Oc1ccccc1`, in the test on Mus musculus [1], the outcome was Active. In the test on Mus musculus [2], the Activity was determined as 100%. Moreover, the figures for the Time in the test on Mus musculus [4], with Mus musculus [5] and with Mus musculus [6] were 10.34 min, 0 s and 6.32 s, respectively.

As to `CCOC(=O)Nc1nc2c(C)cccc2s1`, in the test on Mus musculus [1], the outcome was Active. The Activity with Mus musculus [2] was 83.33%. Further, the Time with Mus musculus [3] is recorded as 85.166 s; in the test with Mus musculus [4] it was 10.36 min; in the test with Mus musculus [5] it was 0 s; with Mus musculus [6], 7.33 s.

As for `CCOC(=O)Nc1nc2ccc(OC)cc2s1`, in the test with Mus musculus [1], the result was Active. The Activity with Mus musculus [2] is 100%. For the same molecule, the Time stood at 9.56 min with Mus musculus [4], 0 s in the test with Mus musculus [5] and 6.4 s in the test on Mus musculus [6].

With `COc1ccc2nc(NC(=O)Oc3ccccc3)sc2c1`, the result in the test on Mus musculus [1] was Active. The molecule further had an Activity in the test with Mus musculus [2] of 66.66%. In addition, the Time in the test on Mus musculus [3] amounted to 80.5 s; in the test on Mus musculus [4], 4.675 min; in the test on Mus musculus [5], 0 s; in the test on Mus musculus [6] it was 11.08 s.

For the molecule `CCOC(=O)Nc1nc2ccc(C)cc2s1`, the result in the test with Mus musculus [1] was Active. Besides, in the test with Mus musculus [2], the Activity is 100%. The Time stood at 12.55 min with Mus musculus [4], 0 s with Mus musculus [5] and 6.24 s in the test on Mus musculus [6].

Take `CCOC(=O)Nc1nc2ccc([N+](=O)[O-])cc2s1`: the outcome in the test with Mus musculus [1] was Active. In addition, the Activity with Mus musculus [2] came out at 83.33%. For the same molecule, the Time with Mus musculus [3] was determined as 80.5 s; in the test with Mus musculus [4], 8.37 min; with Mus musculus [5], 0 s; with Mus musculus [6], 7.44 s.

Turning to `O=C(Nc1nc2ccccc2s1)Oc1ccccc1`, in the test on Mus musculus [1], the result was Active. Also, in the test on Mus musculus [2], the Activity was determined as 100%. The Time came out at 11.47 min with Mus musculus [4], 0 s in the test on Mus musculus [5] and 9.54 s in the test on Mus musculus [6].

Take `O=C1NC(=O)C(c2ccccc2)(c2ccccc2)N1` [PHENYTOIN]: in the test with Mus musculus [7], the outcome was Active. The Time in the test on Mus musculus [8] was 0 s; in the test on Mus musculus [9], 5.34 s; in the test with Mus musculus [11], 13.39 min. In the test on Mus musculus [10], this molecule displayed an Activity of 100%.

As for `O=C(Nc1nc2ccc(Cl)cc2s1)Oc1ccccc1`, the outcome with Mus musculus [1] was Active. Also, the Activity with Mus musculus [2] came out at 66.66%. For the same molecule, the Time was 70.83 s in the test with Mus musculus [3], 11.2 min in the test with Mus musculus [4], 0 s with Mus musculus [5] and 8.34 s with Mus musculus [6].

On to `CCOC(=O)Nc1nc2ccccc2s1`, for which the result with Mus musculus [1] was Active. Also, in the test on Mus musculus [2], the Activity was 83.33%. Moreover, the Time with Mus musculus [3] is 86.66 s; with Mus musculus [4] it was 11.18 min; in the test on Mus musculus [5], 0 s; in the test with Mus musculus [6], 7.29 s.

`Cc1ccc2nc(NC(=O)Oc3ccccc3)sc2c1`: the outcome in the test on Mus musculus [1] was Active. This molecule had an Activity in the test with Mus musculus [2] of 100%. Besides, the Time stood at 13.28 min with Mus musculus [4], 0 s with Mus musculus [5] and 6.74 s in the test with Mus musculus [6].

Take `CCOC(=O)Nc1nc2ccc(Cl)cc2s1`: the result in the test on Mus musculus [1] was Active. This molecule also returned an Activity in the test on Mus musculus [2] of 66.66%. Further, the Time with Mus musculus [3] was 71.83 s; in the test with Mus musculus [4] it was 5.4 min; with Mus musculus [5], 0 s; in the test with Mus musculus [6], 9.27 s.
